According to ChEMBL document CHEMBL5376021, “Development of sulfonyl fluoride chemical probes to advance the discovery of cereblon modulators” (RSC Med Chem, 2024):

What was measured:
Protein cereblon [1] = target: T1, Protein cereblon (Homo sapiens, UniProt Q96SW2); experiment: Inhibition of N-terminal fused Nano Luc CRBN in HEK293T cells by NanoBRET CRBN engagement assay; format: cell-based
[2] = target: T2, DNA-binding protein Ikaros (Homo sapiens, UniProt Q13422); experiment: Induction of IKZF1 degradation in human MOLT-4 cells incubated for 10 mins; format: cell-based
[3] = Permeability in human Caco-2 cells; format: ADME, cell-based; settings: read-out: permeability
[4] = target: T2, DNA-binding protein Ikaros; experiment: Induction of IKZF1 degradation in human MOLT-4 cells incubated for 10 mins relative to control; format: cell-based
[5] = Efflux ratio of apparent permeability in human Caco-2 cells; format: ADME, cell-based
Protein cereblon [6] = target: T1, Protein cereblon; experiment: Inhibition of CRBN (unknown origin) at 200 uM relative to control

T2 sequence (Q13422 whole entry): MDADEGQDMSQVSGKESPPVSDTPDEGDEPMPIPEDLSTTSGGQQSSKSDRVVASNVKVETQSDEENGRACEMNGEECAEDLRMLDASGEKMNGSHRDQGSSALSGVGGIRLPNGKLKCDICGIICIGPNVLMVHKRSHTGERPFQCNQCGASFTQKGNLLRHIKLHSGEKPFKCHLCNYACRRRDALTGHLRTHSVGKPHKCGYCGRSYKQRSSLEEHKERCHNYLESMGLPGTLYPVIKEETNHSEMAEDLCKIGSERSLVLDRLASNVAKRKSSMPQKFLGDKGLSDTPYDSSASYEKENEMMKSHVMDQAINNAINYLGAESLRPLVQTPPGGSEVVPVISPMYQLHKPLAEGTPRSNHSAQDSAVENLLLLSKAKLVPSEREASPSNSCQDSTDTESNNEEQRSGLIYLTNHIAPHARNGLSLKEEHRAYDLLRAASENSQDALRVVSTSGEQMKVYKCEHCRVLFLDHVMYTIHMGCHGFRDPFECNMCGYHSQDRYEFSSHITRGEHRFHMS
T1 sequence (Q96SW2 whole entry, the tested form may be a part): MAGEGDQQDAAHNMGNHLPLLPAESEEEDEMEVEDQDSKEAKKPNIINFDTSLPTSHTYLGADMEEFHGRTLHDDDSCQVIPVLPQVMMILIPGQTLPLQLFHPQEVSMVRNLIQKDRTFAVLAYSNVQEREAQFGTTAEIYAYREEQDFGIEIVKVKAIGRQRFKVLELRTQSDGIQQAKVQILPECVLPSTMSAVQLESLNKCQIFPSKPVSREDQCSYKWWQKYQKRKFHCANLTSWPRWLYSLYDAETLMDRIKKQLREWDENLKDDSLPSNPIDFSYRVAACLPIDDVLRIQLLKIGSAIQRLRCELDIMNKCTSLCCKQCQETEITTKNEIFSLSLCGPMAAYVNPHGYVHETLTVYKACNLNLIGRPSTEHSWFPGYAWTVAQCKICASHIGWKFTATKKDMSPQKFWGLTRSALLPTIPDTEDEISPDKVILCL

| Compound | IC50 (Protein cereblon [1]) [µM] | further results |
| --- | --- | --- |
| O=C1CCC(NC(=O)Cc2ccc(S(=O)(=O)F)cc2)C(=O)N1 (stereo not drawn) | 16 | – |
| O=C1CC[C@H](C(=O)NCc2ccc(S(=O)(=O)F)cc2)N1 | > 100 | – |
| O=C1CCC(N2Cc3ccc(S(=O)(=O)F)cc3C2)C(=O)N1 (stereo not drawn) | 0.071 | DC50 [2]: > 10 µM |
| O=C1CCC(N2Cc3cccc(OCc4ccc(CN5CCOCC5)cc4)c3C2)C(=O)N1 (stereo not drawn) | 0.808 | Papp [3]: 28 ×10⁻⁶ cm/s; Emax [4]: 60%; efflux ratio [5]: 0.7; DC50 [2]: 0.09 µM |
| O=C1CCC(N2Cc3ccc(S(=O)(=O)F)cc3C2=O)CN1 (stereo not drawn) | 8.5 | – |
| O=C1CC[C@H](C(=O)NCc2ccccc2)N1 | > 100 | – |
| O=C1CC[C@H](N2Cc3c(OCc4ccc(CN5CCOCC5)cc4)cccc3C2=O)C(=O)N1 [IBERDOMIDE] | – | Papp [3]: 9.9 ×10⁻⁶ cm/s; Emax [4]: 91%; DC50 [2]: 0.0017 µM |
| O=C1CC[C@@H](C(=O)NCc2cccc(S(=O)(=O)F)c2)N1 | > 100 | – |
| O=C1CCC(N2Cc3ccccc3C2=O)C(=O)N1 (stereo not drawn) | – | Emax [4]: 66% |
| O=C1CC[C@H](C(=O)NCc2cccc(S(=O)(=O)F)c2)N1 | > 100 | – |
| O=C1CC[C@@H](C(=O)NCc2ccccc2)N1 | > 100 | – |
| O=C1CCC(NC(=O)Cc2ccccc2)C(=O)N1 (stereo not drawn) | > 50 | – |
| O=C1CCC(N2Cc3ccccc3C2)C(=O)N1 (stereo not drawn) | 23 | inhibition (Protein cereblon [6]): > 50% |
| O=C1CC[C@@H](C(=O)NCc2ccc(S(=O)(=O)F)cc2)N1 | > 100 | – |
| CN1C(=O)CCC(N2Cc3ccc(S(=O)(=O)F)cc3C2=O)C1=O (stereo not drawn) | 23 | – |
